Measurements from ChEMBL document CHEMBL1130909, “General construction pattern of histamine H3-receptor antagonists: change of a paradigm” (Bioorg Med Chem Lett, 1998).

Molecular target: Histamine H3 receptor (Rattus norvegicus, UniProt Q9QYN8)
Assay: In vitro Histamine H3 receptor antagonist activity in an assay with K+-evoked depolarization-induced release of [3H]histamine from synaptosomes of rat cerebral cortex
Format: functional, subcellular, Brain

Chain of Histamine H3 receptor (Q9QYN8 whole entry): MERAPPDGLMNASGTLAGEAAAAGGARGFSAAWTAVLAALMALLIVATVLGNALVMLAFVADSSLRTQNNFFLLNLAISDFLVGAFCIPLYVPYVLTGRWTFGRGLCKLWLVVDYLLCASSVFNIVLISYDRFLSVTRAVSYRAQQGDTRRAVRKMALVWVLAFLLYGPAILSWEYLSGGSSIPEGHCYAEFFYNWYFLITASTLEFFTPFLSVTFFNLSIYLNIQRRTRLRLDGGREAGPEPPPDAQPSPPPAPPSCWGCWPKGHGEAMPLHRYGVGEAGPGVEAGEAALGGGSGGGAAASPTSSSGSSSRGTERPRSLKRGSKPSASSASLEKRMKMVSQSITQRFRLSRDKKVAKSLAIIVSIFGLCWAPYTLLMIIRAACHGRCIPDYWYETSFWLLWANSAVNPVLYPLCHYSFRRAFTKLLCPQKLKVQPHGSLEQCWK

Ki [µM]	Compound
0.4	CCCCCCCCCc1c[nH]cn1
> 0.5	CCCCCCC/C=C\c1c[nH]cn1

Compound	Ki [µM]
C(=C\CCc1c[nH]cn1)/CCc1ccccc1	0.042
